This is an account of results in patent US20250214977A1, “STAT6 INHIBITORS AND USES THEREOF” (Kymera Therapeutics, Inc., priority 2024, published 2025).

For orientation: IC50 means the concentration needed to halve the response being measured.

The assay has as its system Phosphorylation of STAT6 in human A549 cells. The assay is described as follows: Phosphorylated STAT6 (pSTAT6) flow cytometry assay in human A549 cells. Conditions: read-out: STAT6 IL4 pSTAT6 assay in A549 cells: Average IC50. It counts as cell-based. From the text:
Example 3. Phosphorylated STAT6 (pSTAT6) Flow Cytometry Assay in Human A549 Cells
Phosphorylation of STAT6 in human A549 cells was quantitatively measured using flow cytometry technology.
A general note: In flow cytometry, cells or beads pass a laser one at a time.

In the case of `COc1ccccc1-c1cc(C2=CCCN(C(=O)CCn3ccnn3)C2)c(F)c2[nH]c(C(=O)N3CCN(c4ncccc4Cl)CC3)cc12` [Example I-324], the IC50 was less than 100 nM.

Consider `COc1c(F)cccc1-c1cc(C2=CCCN(C(C)=O)C2)c(F)c2[nH]c(C(=O)N(C)C)cc12` [Example I-881], for which the IC50 lay within 100 to 1000 nM.

In the case of `COc1ccccc1-c1cc(C2=CCCN(C(=O)CCn3cccn3)C2)c(F)c2[nH]c(C(=O)N3Cc4cnn(C)c4C3)cc12` [Example I-503], the IC50 lay in the range of 10000 to 100000 nM.

As to `COc1ccccc1-c1cc(C2=CCCN(C(=O)CCn3ccnn3)C2)c(F)c2[nH]c(C(=O)N3CCN(c4ccc5c(c4)c4ccccc4n5C)CC3)cc12` [Example I-770], the IC50 fell in the range of 1000 to 10000 nM.

As for `COc1ccccc1-c1cc(C2=CCCN(C(=O)CCn3ccnn3)C2)c(F)c2[nH]c(C(=O)N3CCC(OC4CCC4)CC3)cc12` [Example I-984], the IC50 was less than 100 nM.

For `COc1cc(F)cnc1N1CCN(C(=O)c2cc(-c3cccnc3C3CC3)c3[nH]c(C4CCCN(C(=O)CCn5ccnn5)C4)cc3c2)CC1` (stereo not drawn) [Example I-1204], the IC50 fell in the range of 1000 to 10000 nM.

For `COc1cc(F)cnc1N1CCN(C(=O)c2cc3c(-c4ccc(-n5nc(C)cc5C)cc4)cc(C4=CCCN(C(=O)CCn5ccnn5)C4)c(F)c3[nH]2)CC1` [Example I-1114], the IC50 is less than 100 nM.

As to `COc1ccccc1-c1cc(C2=CCCN(C(=O)CCn3ccnn3)C2)c(F)c2[nH]c(C(=O)N3CCN(c4ccnnc4O)CC3)cc12` [Example I-908], the IC50 is less than 100 nM.

With `COc1ccccc1-c1cc(C2=CCCN(C(=O)CCn3ccnn3)C2)c(F)c2[nH]c(C(=O)N3CCN(C(=O)N(C)C)CC3)cc12` [Example I-866], the IC50 is less than 100 nM.

Turning to `CNc1ccc(-c2cc([C@@H]3CCCN(C(=O)CCn4ccnn4)C3)cc3[nH]c(C(=O)N(C)C)cc23)c(OC)c1` (single isomer, unassigned) [Example I-1191], the IC50 was 1000 to 10000 nM.

Regarding `CCc1ccc(-c2cc(C(=O)N3Cc4cnn(CC)c4C3)cc3cc(C4=CCCN(C(=O)C(=O)O)C4)n(CC4CC4)c23)c(C)n1` [Example I-798], the IC50 is greater than 100000 nM.

`COc1ccccc1-c1cc(C2=CCCN(C(=O)CCn3ccnn3)C2)c(F)c2[nH]c(C(=O)Nc3ccnn3C)cc12` [Example I-993]: the IC50 is 100 to 1000 nM.

As for `CCc1ccncc1-c1cc(C2=CCCN(C(=O)OC)C2)c(F)c2[nH]c(C(=O)N3CCN(c4ncc(F)cc4OC)CC3)cc12` [Example I-708], the IC50 lay in the range of 10000 to 100000 nM.

Turning to `COc1ccccc1-c1cc(C2=CCCN(C(=O)CCn3ccnn3)C2)c(F)c2[nH]c(C(=O)N3CC(Oc4cccnc4)C3)cc12` [Example I-992], the IC50 is less than 100 nM.

As for `COc1cc(F)cnc1N1CCN(C(=O)c2cc3c(-c4ccc(NC5CCCC5)cc4)cc(C4=CCCN(C(=O)CCn5ccnn5)C4)c(F)c3[nH]2)CC1` [Example I-1124], the concentration for half-maximal inhibition (IC50) is 100 to 1000 nM.

On to `COc1cnccc1-c1cc(C2=CCCN(C(=O)CCn3ccnn3)C2)cc2cc(C(=O)N(C)C)oc12` [Example I-1067], for which the half-inhibitory concentration (IC50) was less than 100 nM.

As to `COc1cc(F)cnc1N1CCN(C(=O)c2cc3c(-c4cc(C)cc5cccnc45)cc(C4=CCCN(C(=O)CCn5ccnn5)C4)c(F)c3[nH]2)CC1` [Example I-633], the IC50 is less than 100 nM.

`COc1ccccc1-c1cc(C2=CCCN(C(=O)CCn3ccnn3)C2)c(F)c2[nH]c(C(=O)N3CCN(c4ccncc4OC)CC3)cc12` [Example I-365]: the IC50 is less than 100 nM.

`COc1cc(F)cnc1N1CCN(C(=O)c2cc3c(C4=CCOC4)cc(C4=CCCN(C(=O)CCn5ccnn5)C4)c(F)c3[nH]2)CC1` [Example I-639]: the 50% inhibitory concentration (IC50) is less than 100 nM.

Consider `COc1cc(F)cnc1N1CCN(C(=O)c2cc3c(-c4cc(C)ncc4C)cc(C4=CCCN(C(=O)CCn5ccnn5)C4)c(F)c3[nH]2)CC1` [Example I-646], for which the IC50 is less than 100 nM.

Consider `COc1cc(F)cnc1N1CCN(C(=O)c2cc3c(-c4cnc5c(C)cccc5c4)cc(C4=CCCN(C(=O)CCn5ccnn5)C4)c(F)c3[nH]2)CC1` [Example I-672], for which the IC50 is less than 100 nM.

Consider `COc1cnccc1-c1cc(C2=CCCN(C(C)=O)C2)c(F)c2sc(C(=O)N(C)C)cc12` [Example I-554], for which the IC50 was 100 to 1000 nM.

`COc1cc(F)cnc1N1CCN(C(=O)c2cc3c(-c4cccc(O)c4)cc(C4=CCCN(C(=O)CCn5ccnn5)C4)c(F)c3[nH]2)CC1` [Example I-615]: the IC50 is less than 100 nM.

For the molecule `CC(=O)N1CCC=C(c2cc(-c3ccccc3C(N)=O)c3cc(C(=O)N(C)C)[nH]c3c2F)C1` [Example I-1099], the IC50 lay within 100 to 1000 nM.

Turning to `COc1cc(F)ccc1-c1cc(C2=CCCN(C(=O)CCn3ccnn3)C2)c(F)c2[nH]c(C(=O)N3CCN(c4ncccc4OC4CC4)CC3)cc12` [Example I-594], the IC50 was less than 100 nM.

Consider “(1R)-3-[4-(4-ethyl-3-pyridyl)-7-fluoro-2-[4-(5-fluoro-3-methoxy-2-pyridyl)piperazine-1-carbonyl]-1H-indol-6-yl]cyclohex-3-ene-1-carboxylic acid [Example I-810]”, for which the IC50 was less than 100 nM.

Take `COc1cc(F)cnc1N1CCN(C(=O)c2cc3c(-c4cncc(-c5ccccc5)c4)cc(C4=CCCN(C(=O)CCn5ccnn5)C4)c(F)c3[nH]2)CC1` [Example I-647]: the IC50 was less than 100 nM.

For the molecule `COc1ccncc1-c1cc(C2=CCCN(C(=O)CCn3ccnn3)C2)c(F)c2[nH]c(C(=O)N3CCN(c4ccc(F)cc4OC)CC3)cc12` [Example I-482], the IC50 was less than 100 nM.

In the case of `COc1ccccc1-c1cc(C2=CCCN(C(=O)CCn3ccnn3)C2)c(F)c2[nH]c(C(=O)N3CCN(c4cc5cc[nH]c5nc4C#N)CC3)cc12` [Example I-401], the IC50 is greater than 100000 nM.

With `COc1ccccc1-c1cc(C2=CCCN(C(=O)CCn3cccn3)C2)c(F)c2[nH]c(C(=O)N3CCN(c4ncccc4OC4CC4)CC3)cc12` [Example I-345], the IC50 was less than 100 nM.

For the molecule `COc1ccncc1-c1cc(C2=CCCN(C(=O)CCn3ccnn3)C2)c(F)c2[nH]c(C(=O)N3CCN(c4cccc(F)c4OC)CC3)cc12` [Example I-563], the IC50 is less than 100 nM.

For `COc1ccccc1-c1cc(C2=CCCN(C(=O)CCn3ccnn3)C2)c(F)c2[nH]c(C(=O)N3CCN(Cc4c(C)nn(C)c4C)CC3)cc12` [Example I-1182], the IC50 was less than 100 nM.

On to `COc1ccccc1-c1cc(C2=CCCN(C(=O)CCn3ccnn3)C2)c(F)c2[nH]c(C(=O)N3CCc4nocc4C3)cc12` [Example I-1029], for which the concentration for half-maximal inhibition (IC50) was less than 100 nM.

`CCn1c(N2CCN(C(=O)c3cc4c(-c5ccccc5OC)cc(C5=CCCN(C(=O)CCn6ccnn6)C5)c(F)c4[nH]3)CC2)nc2ccccc21` [Example I-942]: the IC50 was less than 100 nM.

In the case of `CCc1cc(C(F)F)ncc1-c1cc(C2=CCCN(C(=O)CCn3ccnn3)C2)c(F)c2[nH]c(C(=O)N3Cc4cnn(CC)c4C3)cc12` [Example I-767], the IC50 was greater than 100000 nM.

For the molecule `COc1ccccc1-c1cc(C2=CCCN(C(C)=O)C2)c(F)c2[nH]c(C(=O)N(C)C)cc12` [Example I-1069], the half-inhibitory concentration (IC50) was less than 100 nM.

Turning to `CC(=O)N1CCC=C(c2cc(-c3ccc4n[nH]c(C)c4c3)c3cc(C(=O)N(C)C)[nH]c3c2F)C1` [Example I-883], the IC50 is 100 to 1000 nM.

Consider `CNc1ccc(-c2cc(C3=CCCN(C(=O)C4Cc5ccccc5CN4C=O)C3)cc3[nH]c(C(=O)N(C)C)cc23)cc1` (stereo not drawn) [Example I-551], for which the IC50 is less than 100 nM.

Regarding `COc1cc(F)cnc1N1CCN(C(=O)c2cc3c(-c4ccc(C(F)F)cc4)cc(C4=CCCN(C(=O)CCn5ccnn5)C4)c(F)c3[nH]2)CC1` [Example I-1160], the IC50 is less than 100 nM.
